Experimental data: article PMC12169615, “Fluorescent 4‑Nitrobenzo-2-oxa-1,3-diazole-Coupled Bile Acids as Probe Substrates of Hepatic and Intestinal Bile Acid Transporters of the Solute Carrier Families SLC10 and SLCO” (Journal of Medicinal Chemistry, 2025)
“And” between values parts separate entries of the source, which are not always exact repeats. Equal entries are not always repeated.

Legend:
Assay in all cases: Quantitative uptake of 3-NBD-BA in carrier-expressing HEK293 cells (fluorescence reader)
Type in all cases: cell-based
human NTCP = biological target: T1, human NTCP (Homo sapiens, UniProt Q14973); settings: NTCP-HEK293, 25 μM, 37 °C, +Na+ vs -Na+
T1 construct: HEK293 cell lines stably transfected with the full open reading frames of human NTCP; expressed in transfected cells
T1 sequence (Q14973 1-349): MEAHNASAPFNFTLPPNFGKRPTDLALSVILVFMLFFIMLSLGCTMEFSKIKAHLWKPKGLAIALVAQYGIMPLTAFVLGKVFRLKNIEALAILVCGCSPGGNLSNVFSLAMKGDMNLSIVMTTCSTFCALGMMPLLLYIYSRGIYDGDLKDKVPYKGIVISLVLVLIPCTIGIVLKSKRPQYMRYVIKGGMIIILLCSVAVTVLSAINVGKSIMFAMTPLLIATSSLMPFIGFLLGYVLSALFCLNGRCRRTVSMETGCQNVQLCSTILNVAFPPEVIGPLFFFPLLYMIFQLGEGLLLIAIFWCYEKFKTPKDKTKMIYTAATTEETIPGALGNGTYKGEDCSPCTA
Description: (§1) For quantification of the transport activity of the synthesized NBD-BA, all cell lines were seeded on 96 well plates and transport experiments were performed under the same control conditions (-Na^+ control for the SLC10 carriers and nontransfected HEK293 cells for the OATP carriers) as before (Figure ). For each NBD-BA, a substrate concentration of 25 μM was used, and the uptake phase was terminated after 10 min of incubation at 37 °C. […] The transport ratios ranged from 3-fold to 39-fold. In direct comparison, 3α-NBD-TCA (14d) and 3α-NBD-GCA (16d) were transported better than their 3β-analogs 3β-NBD-TCA (14a) and 3β-NBD-GCA (16a), respectively, clearly pointing to a preference for the α-position over the β-position of the 3-NBD-label. In direct comparison between the taurine- or glycine-conjugation of the respective NBD-BA, there was a clear preference for 3α-NBD-GCA (16d) over 3α-NBD-TCA (14d), at least for NTCP and mAsbt, pointing to a favorable substrate recognition for glycine-conjugated NBD-BA.
(§2) 5 Quantitative uptake experiments with the 3-NBD-BA in HEK293 cells stably expressing the human carriers NTCP, ASBT, SOAT, OATP1B1, and OATP1B3, or the mouse carriers mNtcp and mAsbt. For the SLC10 carriers, all transport experiments were performed in the presence (filled bars) and the absence (hatched bars) of sodium. For the OATP carriers, uptake into carrier-expressing cells (filled bars) was compared to uptake into non-carrier-expressing HEK293 cells (hatched bars). All cell lines were incubated at 37 °C for 10 min with the indicated 3-NBD-BA at 25 μM. Then, cells were washed with PBS and subjected to fluorescence detection. The following fluorescent BA were analyzed: 3α-NBD-TCA (14d), 3β-NBD-TCA (14a), 3α-NBD-GCA (16d), 3β-NBD-GCA (16a), 3β-NBD-TCDCA (14b), 3β-NBD-CDCA (6b), 3β-NBD-DCA (6c), 3α-NBD-CA (6d), and 3β-NBD-CA (6a). Data represent means ± SD of triplicate determinations of representative experiments. […] RFU, relative fluorescence units. TEXT PRINTED IN THE PICTURE: 3α-NBD-TCA (14d): NTCP: 9 X; mNtcp: 30 X; ASBT: 2 X; mAsbt: 14 X | 3ß-NBD-TCA (14a): NTCP: 12 X; mNtcp: 20 X; mAsbt: 18 X | 3α-NBD-GCA (16d): NTCP: 27 X; mNtcp: 26 X; ASBT: 3 X; mAsbt: 39 X | 3ß-NBD-GCA (16a): NTCP: 15 X; mNtcp: 14 X; mAsbt: 5 X | 3ß-NBD-TCDCA (14b): NTCP: 5 X; mNtcp: 3 X; mAsbt: 4 X | 3ß-NBD-CDCA (6b): mNtcp: < 2 X; ASBT: < 2 X; mAsbt: < 2 X; OATP1B1: < 2 X; OATP1B3: < 2 X | 3ß-NBD-DCA (6c): mNtcp: < 2 X; ASBT: < 2 X; mAsbt: < 2 X | 3α-NBD-CA (6d): mNtcp: 2 X; mAsbt: 4 X | 3ß-NBD-CA (6a): NTCP: 2 X; mNtcp: 2 X; mAsbt: 2 X DOUBTS OF THE COPYIST ABOUT THIS PICTURE: The picture prints no panel letters, so the chart titles (NTCP, mNtcp, ASBT, mAsbt, OATP1B1, OATP1B3) are written in front of the values as the target. / Substance labels: the sign after '3' is printed like 'ß' and may be meant as 'β'. / The 'ns' marks and significance asterisks were left out as statistics. The SOAT chart prints only 'ns'.

mouse mNtcp = biological target: T2, mouse mNtcp (Mus musculus, UniProt O08705); settings: mNtcp-HEK293, 25 μM, 37 °C, +Na+ vs -Na+
T2 construct: stably transfected with the full open reading frames of human NTCP, ASBT, SOAT, OATP1B1, and OATP1B3 as well as mouse mNtcp and mAsbt; expressed in transfected cells
T2 sequence (O08705 1-362): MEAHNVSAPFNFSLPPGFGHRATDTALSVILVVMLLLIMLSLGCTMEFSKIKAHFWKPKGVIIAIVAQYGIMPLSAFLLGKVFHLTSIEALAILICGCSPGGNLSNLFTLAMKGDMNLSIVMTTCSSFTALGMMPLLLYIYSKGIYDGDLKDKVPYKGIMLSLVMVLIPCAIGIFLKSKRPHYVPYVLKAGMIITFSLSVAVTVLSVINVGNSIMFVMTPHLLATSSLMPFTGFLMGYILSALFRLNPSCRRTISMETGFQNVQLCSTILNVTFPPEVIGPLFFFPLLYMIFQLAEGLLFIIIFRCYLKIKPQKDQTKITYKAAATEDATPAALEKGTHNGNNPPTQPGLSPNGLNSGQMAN
Description: as §1, §2

human ASBT = biological target: T3, human ASBT (Homo sapiens, UniProt Q12908); design: stably transfected with the full open reading frames of human NTCP, ASBT, SOAT, OATP1B1, and OATP1B3; expressed in transfected cells; settings: ASBT-HEK293, 25 μM, 37 °C, +Na+ vs -Na+
T3 sequence (Q12908 1-348): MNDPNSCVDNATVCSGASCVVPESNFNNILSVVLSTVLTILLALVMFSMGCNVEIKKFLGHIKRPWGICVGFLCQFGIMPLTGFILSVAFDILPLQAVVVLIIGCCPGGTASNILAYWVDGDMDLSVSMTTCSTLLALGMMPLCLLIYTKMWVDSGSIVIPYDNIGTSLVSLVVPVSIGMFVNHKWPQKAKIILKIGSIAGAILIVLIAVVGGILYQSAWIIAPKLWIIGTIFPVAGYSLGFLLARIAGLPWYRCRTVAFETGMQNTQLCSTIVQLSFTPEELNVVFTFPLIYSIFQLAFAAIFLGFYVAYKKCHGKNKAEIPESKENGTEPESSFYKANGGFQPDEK
Description: as §1, §2

Compound | Specific transport ratio NTCP (25µM/10 min uptake) (human NTCP) | Specific transport ratio mNtcp (25µM/10 min uptake) (mouse mNtcp) | Specific transport ratio ASBT (25µM/10 min uptake) (human ASBT)
C[C@H](CCC(=O)O)[C@H]1CC[C@H]2[C@@H]3[C@H](O)C[C@@H]4C[C@@H](Nc5ccc([N+](=O)[O-])c6nonc56)CC[C@]4(C)[C@H]3C[C@H](O)[C@]12C [6a, 7α,12α-Dihydroxy-3β-[(7-nitro-2,1,3-benzoxadiazol-4-yl)amino]-5β-cholan-24-oate] | 2 x-fold and 2x x-fold | 2 x-fold and 2x x-fold | ns
C[C@H](CCC(=O)NCCS(=O)(=O)[O-])[C@H]1CC[C@H]2[C@@H]3[C@H](O)C[C@@H]4C[C@@H](Nc5ccc([N+](=O)[O-])c6nonc56)CC[C@]4(C)[C@H]3C[C@H](O)[C@]12C.[Na+] [14a] | 12x x-fold | 20x x-fold | not transported and ns
7α-Hydroxy-3β-[(7-nitro-2,1,3-benzoxadiazol-4-yl)amino]-5β-cholan-24-oate [6b] | ns | <2x x-fold | <2x x-fold
C[C@H](CCC(=O)NCC(=O)O)[C@H]1CC[C@H]2[C@@H]3[C@H](O)C[C@@H]4C[C@@H](Nc5ccc([N+](=O)[O-])c6nonc56)CC[C@]4(C)[C@H]3C[C@H](O)[C@]12C [16a] | 15x x-fold | 14x x-fold | not transported and ns
12α-Hydroxy-3β-[(7-nitro-2,1,3-benzoxadiazol-4-yl)amino]-5β-cholan-24-oate [6c] | ns | <2x x-fold | <2x x-fold
C[C@H](CCC(=O)NCCS(=O)(=O)[O-])[C@H]1CC[C@H]2[C@@H]3[C@H](O)C[C@@H]4C[C@H](Nc5ccc([N+](=O)[O-])c6nonc56)CC[C@]4(C)[C@H]3C[C@H](O)[C@]12C.[Na+] [14d] | 9x x-fold | 30x x-fold | 
C[C@H](CCC(=O)NCC(=O)O)[C@H]1CC[C@H]2[C@@H]3[C@H](O)C[C@@H]4C[C@H](Nc5ccc([N+](=O)[O-])c6nonc56)CC[C@]4(C)[C@H]3C[C@H](O)[C@]12C [16d] | 27x x-fold | 26x x-fold | 
C[C@H](CCC(=O)O)[C@H]1CC[C@H]2[C@@H]3[C@H](O)C[C@@H]4C[C@H](Nc5ccc([N+](=O)[O-])c6nonc56)CC[C@]4(C)[C@H]3C[C@H](O)[C@]12C [6d, 7α,12α-Dihydroxy-3α-[(7-nitro-2,1,3-benzoxadiazol-4-yl)amino]-5β-cholan-24-oate] | ns | 2 x-fold and 2x x-fold | ns
